The subject of assay [1] is S. aureus. Kind of assay: Direct microbicidal activity and direct effect on adhesion of S. aureus. Further details: species or system Staphylococcus aureus. The note with it: at the concentrations used.
For assay [2], the system named is S. aureus. Kind of assay: Adhesion of S. aureus on skin explant (modified Franz cell), count of adherent bacteria. The assay is classed as cell-based, Staphylococcus aureus. From the text:
Pour révéler le complexe Antigène-Anticorps, le kit DAKO LSAB® (DAKO Corporation) est utilisé selon les recommandations du fournisseur. La révélation est réalisée à l'aide d'un substrat de la péroxydase : la 3,3'diaminobenzidine (DAB) (DAKO Corporation). La réaction enzymatique est révélée par une coloration brune. • ➢L'adhésion des micro-organismes est réalisée dans une cellule à double compartimentation, de type cellule de Franz modifiée. • ➢Une suspension de S.aureus (CIP 53.154) équivalente à 0,5.10^7 micro-organismes est introduite au sein du compartiment supérieur de la cellule. Le dispositif est incubé de 2 h à 37°C sous une atmosphère à 5 % de CO2. A la fin de cette période d'incubation, le surnageant est retiré afin d'éliminer les bactéries non adhérentes. Les échantillons de peau sont ensuite rincés deux fois avec 1 ml de mélange DMEM/HAMF12. Un dénombrement bactérien à l'issue de cette étape donne la proportion de bactéries ayant adhéré à l'explant (T+2 h). Un témoin est réalisé dans le but de déterminer l'adhésion non spécifique des bactéries. • ➢La stimulation de l'expression des β-défensines cutanées précède l'étape d'adhésion. Son objectif est d'étudier l'impact de l'induction des peptides antimicrobiens par des actifs potentiels de type « alkyle mono- ou di-ester d'α,β-butylglucoside » sur l'adhésion de souches bactériennes. Le traitement est effectué en topique ou en systémique. Le temps de stimulation des explants cutanés est de 24 h à 37°C en présence de 5 % de CO2.
Pour analyse, les explants sont retirés de leur cellule, des punchs de diamètres différents (3 mm, 4 mm et 6 mm) sont effectués pour un test MTT de survie, les marquages immuno-histologiques et les analyses des transcrits par RT-PCR. Le reste de peau est utilisé pour une estimation de la flore bactérienne adhérente.
Le dénombrement de la flore bactérienne adhérente exogène par unité de surface de peau a été effectué selon deux méthodes : • par dénombrement bactérien sur milieu solide • par comptage de la radioactivité émise (la souche contaminante étant marquée au H^3) est effectuée. […]
Après une application topique de 5 h et plusieurs rinçages de la surface épidermique d'un explant cutané, l'effet du traitement par l'α,β-LBG brut sur l'adhésion de S.aureus sur ce même explant a été quantifié par le dénombrement des germes adhérents à l'issue d'une mise en contact de 2 h. […]
Après application topique et plusieurs rinçages de la surface épidermique des explants cutanés, l'effet du traitement par les isoformes de l'ester de laurate de butylglucoside pur à 90 %, séparées, α seul, β seul, ou en mélange α,β-LBG (56 % α/44 % β) sur l'adhésion de S. aureus sur l'épiderme a été comparé après quantification des germes adhérents par dénombrement.

Assay [3] has as its system hBD-2. Kind of assay: Immunohistochemistry of hBD-2 peptide in skin explants. The assay is classed as cell-based, human. Particulars: skin explant, qualitative. The procedure:
Les échantillons inclus dans la résine Tissue Tek® sont coupés à froid (température de la chambre à -25°C et la température du porte-objet à - 28°C) à l'aide d'un cryostat (Leica CM 3050s, Nussloch). Les cryocoupes d'une épaisseur de 5 µm sont récupérées sur des lames porte-objet prétraitées, puis mises à sécher environ 2 h à température ambiante et stockées à -20°C pour une utilisation ultérieure. Avant de réaliser l'immuno-marquage, les coupes sont fixées à l'acétone à -20°C pendant 10 min, séchées et conservées à -20°C. Lors d'une première étape, les coupes sont hydratées puis incubées avec les anticorps primaires dirigés contre les peptides d'intérêt dilués dans du PBS. Les anticorps primaires utilisés sont les suivants : • Goat Anti-human BD-2 (500-P161G, Peprotech Inc) dilué au 1/50^e • Rabbit Anti-human defensin-3 (AB3478, Chemicon international) dilué au 1/1000^e • Rabbit Anti-human LL37 (G-075-06, Phoenix Pharmaceuticals Inc) dilué au 1/50^e
Pour révéler le complexe Antigène-Anticorps, le kit DAKO LSAB® (DAKO Corporation) est utilisé selon les recommandations du fournisseur. La révélation est réalisée à l'aide d'un substrat de la péroxydase : la 3,3'diaminobenzidine (DAB) (DAKO Corporation). […]

For laurate de butylglucoside [αβ-LBG brut], in assay [1], the activité microbicide directe result is given as “ni activité microbicide directe” and the “direct effect on adhésion de S. aureus” value is “ni effet sur l'adhésion de S. aureus”. Besides, the “diminution de l'adhésion des germes sur l'explant” value in assay [2] (systemic 30 µg/ml, separate compartments, vs unstimulated control) stood at 11%. The “baisse de l'adhésion de S. aureus” value in assay [2] (topical 30 µg/ml for 5 h, then 2 h contact, vs untreated control) worked out at 20%. Besides, the “production du peptide hBD-2 dans les couches supérieures de l'épiderme” value in assay [3] (systemic, 24 h) is on record as “stimulation de la production”. In addition, the “production du peptide hBD-2 dans les couches supérieures de l'épiderme” value in assay [3] (topical) is “stimulation de la production”.

The record behind these values is patent EP1978972B1, “USE OF ALKYLGLUCOSIDE ESTERS AS BETA-DEFENSIN INDUCERS” (Pierre Fabre Dermo-Cosmétique, priority 2006, dated 2007).
